Test results: PMC4488747, “Inhibition of P-glycoprotein Gene Expression and Function Enhances Triptolide-induced Hepatotoxicity in Mice” (Scientific Reports, 2015)

Key:
[1] = Hepatic concentrations of triptolide in mice; assay type: in vivo; details: mice liver
Description: For TP plasma kinetic study and toxicological evaluation, mice were divided into four groups (n = 5 each) to collect blood and tissue samples: (1) normal + saline group; (2) 1.0 mg/kg TP + 15 nmol NC-siRNA group; (3) 1.0 mg/kg TP + 15 nmol mdr1a-siRNA group; (4) 1.0 mg/kg TP + 10 mg/kg tariquidar group. In order to avoid the complication caused by drug absorption or possible intestinal first-pass effect, TP and the inhibitor were intravenously administrated to mice. The siRNA group was intravenously injected with NC-siRNA or mdr1a-siRNA 2 days before TP dose. For TP + tariquidar group, the mice were received an intravenous tariquidar dose 20 min prior to the TP injection. Blood samples were collected at 2, 5, 10, 15, 30, 60 and 120 min after TP dosing. To assess the liver exposure of TP, liver tissue samples were collected from another set of mice at 5, 30, 60 and 120 min after dosing. Three TP groups were design for this experiment, including TP + NC-siRNA group, TP + mdr1a-siRNA group and TP + tariquidar group. The liver tissue samples were weighed and then homogenized in 10 volume (w:v) of ice-cold saline. The concentrations of TP in plasma and liver tissue were measured by a validated LC-MS/MS method. Prior to the above animal study, a preliminary experiment was performed to assess the possible differences in liver P-gp protein expression (Figure S1) and TP plasma kinetics between NC-siRNA treated mice and normal mice (with saline) (Figure S2 and supplemental Table 1). […] Therefore, NC-siRNA group was used as the control in the following animal study.
The TP in plasma and tissue samples was quantitatively analyzed by a published LC-MS/MS method. The method was slightly modified and validated for analysis of plasma and liver tissue samples. Plasma and tissue homogenate were pretreated with 3-fold volume of methanol-acetonitrile (1:1, v/v) containing 20 ng/ml propranolol to precipitate proteins, and then centrifuged at 4°C, 14,000 g for 10 min. The supernatant (10 μl) was injected into LC-MS/MS for analysis. An Aglient 6410B triple quadrupole mass spectrometer equipped with Agilent1290 Infinity UHPLC system (Agilent Technologies, Santa Clara, CA) was used. TP and propranolol (internal standard, IS) were eluted from an Agilent C18 column (dp = 3.5 μm, 2.1 × 50 mm, Agilent, MA) using a mobile phase gradient (A: water with 0.1% formic acid and 2.5 mM ammonium formate, B: acetonitrile with 0.1% formic acid). The gradient was run as: 0–2.5 min hold at 95% B; 2.5–3 min, a linear gradient to 10% B; 3–4 min hold at 10% B. Flow rate was 0.2 ml/min. TP and propranolol were detected in positive ion mode using single reaction monitoring: TP, m/z 378.1/360.1, IS, m/z 260.0/116.0. Under the above optimized condition, no significant endogenous interferences were detected at the peak regions for TP and IS in all the biological specimens. The calibration curves of TP were linear (r^2 > 0.99) over the concentration range of 1–1000 ng/ml. The lower limit of quantification was at 1 ng/ml. The intra and inter-day precisions (RSD) were all below 11% and the assay accuracies (RE) were in the range from 87% to 113%. The recovery was above 80% for both plasma and tissue samples.

BALB/C mice = test: Liver histopathology (HE staining) in mice; assay type: in vivo; details: TP 1 mg/kg iv, 24 h, TP = NC-siRNA group, tariquidar and mdr1a-1 siRNA = given before TP
Description: For TP plasma kinetic study and toxicological evaluation, mice were divided into four groups (n = 5 each) to collect blood and tissue samples: (1) normal + saline group; (2) 1.0 mg/kg TP + 15 nmol NC-siRNA group; (3) 1.0 mg/kg TP + 15 nmol mdr1a-siRNA group; (4) 1.0 mg/kg TP + 10 mg/kg tariquidar group. In order to avoid the complication caused by drug absorption or possible intestinal first-pass effect, TP and the inhibitor were intravenously administrated to mice. The siRNA group was intravenously injected with NC-siRNA or mdr1a-siRNA 2 days before TP dose. For TP + tariquidar group, the mice were received an intravenous tariquidar dose 20 min prior to the TP injection. Blood samples were collected at 2, 5, 10, 15, 30, 60 and 120 min after TP dosing. To assess the liver exposure of TP, liver tissue samples were collected from another set of mice at 5, 30, 60 and 120 min after dosing. […] The concentrations of TP in plasma and liver tissue were measured by a validated LC-MS/MS method. […]
At 24 h of TP treatment, blood and liver tissue samples were collected from the mice in plasma kinetic study. Serum ALT and AST levels were determined with a CL8000 automated biochemical analyzer (Shimadzu, Japan) after serum was separated by centrifugation at 900 g for 10 min. […] The total protein concentration was quantified by the BCA assay. Bcl-2 and Bax proteins were measured by western blot.

[2] = Preliminary experiment: effect of NC-siRNA on pharmacokinetics of TP in mice; assay type: in vivo; details: mice, plasma; for AUC(0-t) / Cmax / MRT / Vd / clearance: 1 mg/kg
Description: Effect of NC-siRNA on pharmacokinetic of TP
Mice were divided into two groups to collect blood samples (n=5 each): (1) 1.0 mg/kg TP + saline group; (2) 1.0 mg/kg TP + 15 nmol NC-siRNA group. The siRNA group was intravenously injected with NC-siRNA 2 days before TP dose. Blood samples were collected at 2, 5, 10, 15, 30, 60 and 120 min after TP dosing. The concentrations of TP in plasma and liver were measured by a validated LC-MS/MS method.

[3] = set-up: method as in PMID 24632843; details: bile duct-cannulated (BDC) rats, in 24 h; cited from earlier work
P-glycoprotein (P-gp) = tested on: P-glycoprotein (P-gp); set-up: method as in PMID 24065861; details: ATPase assay with rat mdr1 membrane; cited from earlier work
CYP reductase KO mice = tested on: CYP reductase KO mice; set-up: method as in PMID 21596114; details: cited from earlier work
[4] = C57, mouse, iv, TP 1.0 mg/kg + saline
[5] = C57, mouse, iv, TP 1.0 mg/kg + 15 nmol NC-siRNA iv 2 days before

CC(C)[C@]12O[C@H]1[C@@H]1O[C@]13[C@]1(O[C@H]1C[C@H]1C4=C(CC[C@@]13C)C(=O)OC4)[C@@H]2O [TP, Triptolide]
Hepatic concentration of TP ([1]; 5 min after TP 1.0 mg/kg iv, NC-siRNA pretreatment (control)): 1953.3 ± 786.7 ng/g protein
Hepatic concentration of TP ([1]; 5 min after TP 1.0 mg/kg iv, mdr1a-siRNA iv 2 days before): 4278.0 ± 653.1 ng/g protein
Hepatic concentration of TP ([1]; 5 min after TP 1.0 mg/kg iv, tariquidar 10 mg/kg iv 20 min prior): 2857.3 ± 909.4 ng/g protein
Hepatic concentration of TP ([1]; 30 min after TP 1.0 mg/kg iv, NC-siRNA pretreatment (control)): 394.9 ± 41.2 ng/g protein
Hepatic concentration of TP ([1]; 30 min after TP 1.0 mg/kg iv, mdr1a-siRNA iv 2 days before): 950.8 ± 232.1 ng/g protein
Hepatic concentration of TP ([1]; 30 min after TP 1.0 mg/kg iv, tariquidar 10 mg/kg iv 20 min prior): 683.9 ± 61.3 ng/g protein
Hepatic concentration of TP ([1]; 60 min after TP 1.0 mg/kg iv, NC-siRNA pretreatment (control)): 170.6 ± 66.3 ng/g protein
Hepatic concentration of TP ([1]; 60 min after TP 1.0 mg/kg iv, mdr1a-siRNA iv 2 days before): 326.2 ± 22.4 ng/g protein
Hepatic concentration of TP ([1]; 60 min after TP 1.0 mg/kg iv, tariquidar 10 mg/kg iv 20 min prior): 302.8 ± 22.7 ng/g protein
Hepatic concentration of TP ([1]; 120 min after TP 1.0 mg/kg iv, NC-siRNA pretreatment (control)): 37.4 ± 12.2 ng/g protein
Hepatic concentration of TP ([1]; 120 min after TP 1.0 mg/kg iv, mdr1a-siRNA iv 2 days before): 84.8 ± 14.5 ng/g protein
Hepatic concentration of TP ([1]; 120 min after TP 1.0 mg/kg iv, tariquidar 10 mg/kg iv 20 min prior): 36.1 ± 14.4 ng/g protein
Histopathological changes in liver (HE) (BALB/C mice): hepatocellular hydropic degeneration and vacuolization
half-life [2, 4]: 12.6 ± 3 min
AUC(0-t) [2, 5]: 99.1 ± 11.7 ng·h/mL
Cmax [2, 5]: 330 ± 18.2 ng/mL
MRT [2, 5]: 15.6 ± 2.4 min
Vd [2, 5]: 3.1 ± 0.6 L/kg
clearance [2, 5]: 173 mL/min/kg
AUC(0-t) [2, 4]: 104 ± 13.4 ng·h/mL
Cmax [2, 4]: 351 ± 10.9 ng/mL
MRT [2, 4]: 13.8 ± 1.8 min
Vd [2, 4]: 3 ± 0.3 L/kg
clearance [2, 4]: 165 mL/min/kg
t1/2 ([2]; TP 1.0 mg/kg + 15 nmol NC-siRNA iv 2 days before): 12.6 ± 3.6 min
TP dose excreted via bile [3]: ~39%
P-gp substrate identification (P-glycoprotein (P-gp)): substrate
Increase fold of TP hepatic exposure (CYP reductase KO mice; at 120 min): about 2 fold
Increase in AST level (CYP reductase KO mice): about 2 fold
